# System: not listed separately
# Assay: Critical micellar concentration (ANS fluorescence)
# Type: physicochemical
# Details: SO saponins, determined in PBS, Table A7
# Description: The critical micellar concentration (CMC) of saponins derived from Saponaria officinalis (SO) (Table A7) and derived from Quillaja saponaria (QS) (Table A8, and Table A9) was determined by the method of DeVendittis et al. (A fluorimetric method for the estimation of the critical micelle concentration of surfactants, Analytical Biochemistry, Volume 115, Issue 2, August 1981, Pages 278-286) as follows:
# The emission spectrum of 8-Anilinonaphthalene-1-sulfonic acid (ANS) in either purified water (MQ) or PBS (Dulbecco's PBS+/+) was determined at dry weight concentrations of saponins ranging from 1 to 1400 μM to cover the range below and above the CMC. Above the CMC, the fluorescence yield of ANS increases and the wavelength of maximum emission decreases due to portioning of the fluorescent dye into micelles. Fluorescence yields were recorded on a Fluoroskan Ascent FL (Thermo Scientific) at an excitation wavelength of 355 nm, and an emission wavelength of 460 nm. 6 μg at a concentration of 75.86 μM of ANS were used per sample and measurement.
row,SMILES,CMC [µM]
1,CC1OC(OC2C(C)OC(OC(=O)C34CCC(C)(C)CC3C3=CCC5C6(C)CCC(OC7OC(C(=O)O)C(O)C(OC8OCC(O)C(O)C8O)C7OC7OC(CO)C(O)C(O)C7O)C(C)(C=NNC(=O)CCCCCN7C(=O)C=CC7=O)C6CCC5(C)C3(C)CC4O)C(OC3OC(C)C(OC4OCC(O)C(OC5OC(CO)C(O)C(O)C5O)C4O)C(O)C3O)C2O)C(O)C(OC2OCC(O)C(O)C2O)C1O (stereo not drawn) [SO1861-(Ald-EMCH)-(Ac—OH)],>300
2,CC(=O)OC1C(C)OC(OC2C(C)OC(OC(=O)C34CCC(C)(C)CC3C3=CCC5C6(C)CCC(OC7OC(C(=O)NC(C)(CO)CO)C(O)C(OC8OCC(O)C(O)C8O)C7OC7OC(CO)C(O)C(O)C7O)C(C)(C=NNC(=O)CCCCCN7C(=O)C=CC7=O)C6CCC5(C)C3(C)CC4O)C(OC3OC(C)C(OC4OCC(O)C(OC5OC(CO)C(O)C(O)C5O)C4O)C(O)C3O)C2O)C(O)C1OC1OCC(O)C(O)C1O (stereo not drawn) [SO1861-(Ald-EMCH)-(Glu-AMPD)],>30
3,CC1OC(OC2C(C)OC(OC(=O)[C@]34CCC(C)(C)CC3C3=CCC5[C@@]6(C)CC[C@H](OC7OC(C(=O)O)C(O)C(OC8OCC(O)C(O)C8O)C7OC7OC(CO)C(O)C(O)C7O)[C@@](C)(CO)C6CC[C@@]5(C)[C@]3(C)C[C@H]4O)C(OC3OC(C)C(OC4OCC(O)C(OC5OC(CO)C(O)C(O)C5O)C4O)C(O)C3O)C2O)C(O)C(OC2OCC(O)C(O)C2O)C1O (stereo partly drawn) [SO1861-(Ald-OH)-(Ac—OH)],>280
4,CC1OC(OC2C(C)OC(OC(=O)[C@]34CCC(C)(C)CC3C3=CCC5[C@@]6(C)CC[C@H](OC7OC(C(=O)NCCN8C(=O)C=CC8=O)C(O)C(OC8OCC(O)C(O)C8O)C7OC7OC(CO)C(O)C(O)C7O)[C@@](C)(CO)C6CC[C@@]5(C)[C@]3(C)C[C@H]4O)C(OC3OC(C)C(OC4OCC(O)C(OC5OC(CO)C(O)C(O)C5O)C4O)C(O)C3O)C2O)C(O)C(OC2OCC(O)C(O)C2O)C1O (stereo partly drawn) [SO1861-(Glu-AEM)-(Ald-OH)-(Ac—OH)],>150

# Same assay, conditions: comparison in words
row,SMILES,CMC compared with native (underivatised) saponin
1,CC(=O)OC1C(C)OC(OC2C(C)OC(OC(=O)C34CCC(C)(C)CC3C3=CCC5C6(C)CCC(OC7OC(C(=O)O)C(O)C(OC8OCC(O)C(O)C8O)C7OC7OC(CO)C(O)C(O)C7O)C(C)(C=NNC(=O)CCCCCN7C(=O)C=CC7=O)C6CCC5(C)C3(C)CC4O)C(OC3OC(C)C(OC4OCC(O)C(OC5OC(CO)C(O)C(O)C5O)C4O)C(O)C3O)C2O)C(O)C1OC1OCC(O)C(O)C1O (stereo not drawn) [Molecule 2],increased CMC
2,CC1OC(OC2C(C)OC(OC(=O)[C@]34CCC(C)(C)CC3C3=CCC5[C@@]6(C)CC[C@H](OC7OC(C(=O)NC(C)(CO)CO)C(O)C(OC8OCC(O)C(O)C8O)C7OC7OC(CO)C(O)C(O)C7O)[C@@](C)(C=O)C6CC[C@@]5(C)[C@]3(C)C[C@H]4O)C(OC3OC(C)C(OC4OCC(O)C(OC5OC(CO)C(O)C(O)C5O)C4O)C(O)C3O)C2O)C(O)C(OC2OCC(O)C(O)C2O)C1O (stereo partly drawn) [SO1861-(Ac—OH)-(Glu-AMPD)],lower CMC values
3,CC(=O)OC1C(C)OC(OC2C(C)OC(OC(=O)C34CCC(C)(C)CC3C3=CCC5C6(C)CCC(OC7OC(C(=O)NC(C)(CO)CO)C(O)C(OC8OCC(O)C(O)C8O)C7OC7OC(CO)C(O)C(O)C7O)C(C)(C=NNC(=O)CCCCCN7C(=O)C=CC7=O)C6CCC5(C)C3(C)CC4O)C(OC3OC(C)C(OC4OCC(O)C(OC5OC(CO)C(O)C(O)C5O)C4O)C(O)C3O)C2O)C(O)C1OC1OCC(O)C(O)C1O (stereo not drawn) [SO1861-(Ald-EMCH)-(Glu-AMPD)],lower CMC values
4,CC(=O)OC1C(C)OC(OC2C(C)OC(OC(=O)[C@]34CCC(C)(C)CC3C3=CCC5[C@@]6(C)CC[C@H](OC7OC(C(=O)NC(C)(CO)CO)C(O)C(OC8OCC(O)C(O)C8O)C7OC7OC(CO)C(O)C(O)C7O)[C@@](C)(CO)C6CC[C@@]5(C)[C@]3(C)C[C@H]4O)C(OC3OC(C)C(OC4OCC(O)C(OC5OC(CO)C(O)C(O)C5O)C4O)C(O)C3O)C2O)C(O)C1OC1OCC(O)C(O)C1O (stereo partly drawn) [SO1861-(Ald-OH)-(Glu-AMPD)],lower CMC values
5,CC1OC(OC2C(C)OC(OC(=O)[C@]34CCC(C)(C)CC3C3=CCC5[C@@]6(C)CC[C@H](OC7OC(C(=O)NCCN8C(=O)C=CC8=O)C(O)C(OC8OCC(O)C(O)C8O)C7OC7OC(CO)C(O)C(O)C7O)[C@@](C)(C=O)C6CC[C@@]5(C)[C@]3(C)C[C@H]4O)C(OC3OC(C)C(OC4OCC(O)C(OC5OC(CO)C(O)C(O)C5O)C4O)C(O)C3O)C2O)C(O)C(OC2OCC(O)C(O)C2O)C1O (stereo partly drawn) [SO1861-(Glu-AEM)-(Ac—OH)],lower CMC values
6,CC(=O)OC1C(C)OC(OC2C(C)OC(OC(=O)[C@]34CCC(C)(C)CC3C3=CCC5[C@@]6(C)CC[C@H](OC7OC(C(=O)NCCN8C(=O)C=CC8=O)C(O)C(OC8OCC(O)C(O)C8O)C7OC7OC(CO)C(O)C(O)C7O)[C@@](C)(CO)C6CC[C@@]5(C)[C@]3(C)C[C@H]4O)C(OC3OC(C)C(OC4OCC(O)C(OC5OC(CO)C(O)C(O)C5O)C4O)C(O)C3O)C2O)C(O)C1OC1OCC(O)C(O)C1O (stereo partly drawn) [SO1861-(Glu-AEM)-(Ald-OH)],lower CMC values
7,CC1OC(OC2C(C)OC(OC(=O)[C@]34CCC(C)(C)CC3C3=CCC5[C@@]6(C)CC[C@H](OC7OC(C(=O)O)C(O)C(OC8OCC(O)C(O)C8O)C7OC7OC(CO)C(O)C(O)C7O)[C@@](C)(C=O)C6CC[C@@]5(C)[C@]3(C)C[C@H]4O)C(OC3OC(C)C(OC4OCC(O)C(OC5OC(CO)C(O)C(O)C5O)C4O)C(O)C3O)C2O)C(O)C(OC2OCC(O)C(O)C2O)C1O (stereo partly drawn) [SO1861-Ac—OH],higher CMC values
8,CC(=O)OC1C(C)OC(OC2C(C)OC(OC(=O)[C@]34CCC(C)(C)CC3C3=CCC5[C@@]6(C)CC[C@H](OC7OC(C(=O)O)C(O)C(OC8OCC(O)C(O)C8O)C7OC7OC(CO)C(O)C(O)C7O)[C@@](C)(CO)C6CC[C@@]5(C)[C@]3(C)C[C@H]4O)C(OC3OC(C)C(OC4OCC(O)C(OC5OC(CO)C(O)C(O)C5O)C4O)C(O)C3O)C2O)C(O)C1OC1OCC(O)C(O)C1O (stereo partly drawn) [SO1861-Ald-OH],higher CMC values
9,CC(=O)OC1C(C)OC(OC2C(C)OC(OC(=O)[C@]34CCC(C)(C)CC3C3=CCC5[C@@]6(C)CC[C@H](OC7OC(C(=O)NC(C)(CO)CO)C(O)C(OC8OCC(O)C(O)C8O)C7OC7OC(CO)C(O)C(O)C7O)[C@@](C)(C=O)C6CC[C@@]5(C)[C@]3(C)C[C@H]4O)C(OC3OC(C)C(OC4OCC(O)C(OC5OC(CO)C(O)C(O)C5O)C4O)C(O)C3O)C2O)C(O)C1OC1OC(C)C(O)C(O)C1O (stereo partly drawn) [SO1861-Glu-AMPD],lower CMC values

# Same assay, conditions: comparison in words; listed as SO1861-(Ald-EMCH)—(Ac—OH)
row,SMILES,CMC compared with native (underivatised) saponin
1,CC1OC(OC2C(C)OC(OC(=O)C34CCC(C)(C)CC3C3=CCC5C6(C)CCC(OC7OC(C(=O)O)C(O)C(OC8OCC(O)C(O)C8O)C7OC7OC(CO)C(O)C(O)C7O)C(C)(C=NNC(=O)CCCCCN7C(=O)C=CC7=O)C6CCC5(C)C3(C)CC4O)C(OC3OC(C)C(OC4OCC(O)C(OC5OC(CO)C(O)C(O)C5O)C4O)C(O)C3O)C2O)C(O)C(OC2OCC(O)C(O)C2O)C1O (stereo not drawn) [SO1861-(Ald-EMCH)-(Ac—OH)],increased CMC values

# Same assay, conditions: comparison in words; listed as SO1861-(Ald-OH)—(Ac—OH)
row,SMILES,CMC compared with native (underivatised) saponin
1,CC1OC(OC2C(C)OC(OC(=O)[C@]34CCC(C)(C)CC3C3=CCC5[C@@]6(C)CC[C@H](OC7OC(C(=O)O)C(O)C(OC8OCC(O)C(O)C8O)C7OC7OC(CO)C(O)C(O)C7O)[C@@](C)(CO)C6CC[C@@]5(C)[C@]3(C)C[C@H]4O)C(OC3OC(C)C(OC4OCC(O)C(OC5OC(CO)C(O)C(O)C5O)C4O)C(O)C3O)C2O)C(O)C(OC2OCC(O)C(O)C2O)C1O (stereo partly drawn) [SO1861-(Ald-OH)-(Ac—OH)],increased CMC values

# System: EGFR expressing cells (HeLa)
# Assay: cells
# Details: summary statement in the description
row,SMILES,endosomal escape enhancing activity (enhancement of cytotoxicity of ADC / effector molecules)
1,CC(=O)OC1C(C)OC(OC2C(C)OC(OC(=O)[C@]34CCC(C)(C)CC3C3=CCC5[C@@]6(C)CC[C@H](OC7OC(C(=O)NC(C)(CO)CO)C(O)C(OC8OCC(O)C(O)C8O)C7OC7OC(CO)C(O)C(O)C7O)[C@@](C)(C=O)C6CC[C@@]5(C)[C@]3(C)C[C@H]4O)C(OC3OC(C)C(OC4OCC(O)C(OC5OC(CO)C(O)C(O)C5O)C4O)C(O)C3O)C2O)C(O)C1OC1OCC(O)C(O)C1O (stereo partly drawn) [Molecule 3A],display activity
2,CC(=O)OC1C(C)OC(OC2C(C)OC(OC(=O)[C@]34CCC(C)(C)CC3C3=CCC5[C@@]6(C)CC[C@H](OC7OC(C(=O)NC(C)(CO)CO)C(O)C(OC8OCC(O)C(O)C8O)C7OC7OC(CO)C(O)C(O)C7O)[C@@](C)(CO)C6CC[C@@]5(C)[C@]3(C)C[C@H]4O)C(OC3OC(C)C(OC4OCC(O)C(OC5OC(CO)C(O)C(O)C5O)C4O)C(O)C3O)C2O)C(O)C1OC1OCC(O)C(O)C1O (stereo partly drawn) [Molecule 9],have the capacity to enhance the cytotoxic effect
3,CC1OC(OC2C(C)OC(OC(=O)[C@]34CCC(C)(C)CC3C3=CCC5[C@@]6(C)CC[C@H](OC7OC(C(=O)NC(C)(CO)CO)C(O)C(OC8OCC(O)C(O)C8O)C7OC7OC(CO)C(O)C(O)C7O)[C@@](C)(C=O)C6CC[C@@]5(C)[C@]3(C)C[C@H]4O)C(OC3OC(C)C(OC4OCC(O)C(OC5OC(CO)C(O)C(O)C5O)C4O)C(O)C3O)C2O)C(O)C(OC2OCC(O)C(O)C2O)C1O (stereo partly drawn) [Molecule 11],display activity
4,CC(=O)OC1C(C)OC(OC2C(C)OC(OC(=O)C34CCC(C)(C)CC3C3=CCC5C6(C)CCC(OC7OC(C(=O)NC(C)(CO)CO)C(O)C(OC8OCC(O)C(O)C8O)C7OC7OC(CO)C(O)C(O)C7O)C(C)(C=NNC(=O)CCCCCN7C(=O)C=CC7=O)C6CCC5(C)C3(C)CC4O)C(OC3OC(C)C(OC4OCC(O)C(OC5OC(CO)C(O)C(O)C5O)C4O)C(O)C3O)C2O)C(O)C1OC1OCC(O)C(O)C1O (stereo not drawn) [Molecule 14],have the capacity to enhance the cytotoxic effect
5,CC(=O)OC1C(C)OC(OC2C(C)OC(OC(=O)[C@]34CCC(C)(C)CC3C3=CCC5[C@@]6(C)CC[C@H](OC7OC(C(=O)NCCN8C(=O)C=CC8=O)C(O)C(OC8OCC(O)C(O)C8O)C7OC7OC(CO)C(O)C(O)C7O)[C@@](C)(C=O)C6CC[C@@]5(C)[C@]3(C)C[C@H]4O)C(OC3OC(C)C(OC4OCC(O)C(OC5OC(CO)C(O)C(O)C5O)C4O)C(O)C3O)C2O)C(O)C1OC1OCC(O)C(O)C1O (stereo partly drawn) [Molecule 18],display activity
6,CC1OC(OC2C(C)OC(OC(=O)[C@]34CCC(C)(C)CC3C3=CCC5[C@@]6(C)CC[C@H](OC7OC(C(=O)NCCN8C(=O)C=CC8=O)C(O)C(OC8OCC(O)C(O)C8O)C7OC7OC(CO)C(O)C(O)C7O)[C@@](C)(C=O)C6CC[C@@]5(C)[C@]3(C)C[C@H]4O)C(OC3OC(C)C(OC4OCC(O)C(OC5OC(CO)C(O)C(O)C5O)C4O)C(O)C3O)C2O)C(O)C(OC2OCC(O)C(O)C2O)C1O (stereo partly drawn) [Molecule 19],display activity

# Source: patent US20230357310A1, “Saponin derivatives with improved therapeutic window” (priority 2019, published 2023)
